{
  "source": "patent US20240173432A1",
  "about": "“Compositions and Methods for Treatment of Myotonic Dystrophy Type 1 with CRISPR/SluCas9” (Vertex Pharmaceuticals Incorporated, priority 2021, published 2024)",
  "system": "CUG foci in primary DM1 patient myoblasts",
  "experiment": "Single-cut screening: FISH staining of CUG RNA foci",
  "format": "cell-based, human",
  "conditions": "for frequency of CUG foci free myoblast nuclei (foci number per nucleus=0) / frequency of myoblast nuclei that contain more than three CUG foci: RNA foci distribution analysis (FIG. 6A-B); for % of CUG foci free nuclei (DNA-PKi) / % of CUG foci free nuclei (Vehicle): single sgRNA, primary DM1 patient myoblasts; for % of CUG foci free nuclei (DNA-PKi): DNA-PKi treated",
  "how_it_was_run": "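CD56-purified primary DM1 patient myoblasts nucleofected with SluCas9:sgRNA RNP (30:90 pmol, single-cut), then DMSO or 3 μM DNA-PK inhibitor for 48 h. At 72 h post-nucleofection, cells fixed and stained for CUG foci with Cy3-PNA(CAG)5 probe (1 ng/μL, 80 °C), co-stained for MBNL1 and Hoechst, imaged by high-content confocal microscopy.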",
  "data": [
    {"substance": "ATGGGCAAACTGCAGGCCTGGG (listed as DNA, chemistry not fully specified) [SluD14]", "values": [
      {"measurement": "frequency of CUG foci free myoblast nuclei (foci number per nucleus=0)", "value": "increased the frequency"},
      {"measurement": "frequency of myoblast nuclei that contain more than three CUG foci", "value": "reduced the frequency"},
      {"measurement": "% of CUG foci free nuclei (DNA-PKi)", "value": 81.82, "unit": "%"},
      {"measurement": "% of CUG foci free nuclei (Vehicle)", "value": 53.12, "unit": "%"},
      {"measurement": "percentage of CUG foci free nuclei", "setting": "single-cut, DNA-PKi treatment (3 μM Compound 6, 48 hrs)", "value": 81.82, "unit": "%"}
    ]},
    {"substance": "GCCCCGTTGGAAGACTGAGTGC (listed as DNA, chemistry not fully specified) [SluU08]", "values": [
      {"measurement": "% of CUG foci free nuclei (DNA-PKi)", "value": 61.56, "unit": "%"},
      {"measurement": "% of CUG foci free nuclei (Vehicle)", "value": 31.42, "unit": "%"}
    ]},
    {"substance": "gggcTCGAAGGGTCCTTGTAGC (as printed in the source, key not given here) [SluU64]", "values": [
      {"measurement": "% of CUG foci free nuclei (DNA-PKi)", "value": 67.39, "unit": "%"},
      {"measurement": "% of CUG foci free nuclei (Vehicle)", "value": 37.58, "unit": "%"}
    ]},
    {"substance": "ggggcTCGAAGGGTCCTTGTAG (as printed in the source, key not given here) [SluU63]", "values": [
      {"measurement": "frequency of CUG foci free myoblast nuclei (foci number per nucleus=0)", "value": "increased the frequency"},
      {"measurement": "frequency of myoblast nuclei that contain more than three CUG foci", "value": "reduced the frequency"},
      {"measurement": "% of CUG foci free nuclei (DNA-PKi)", "value": 70.99, "unit": "%"},
      {"measurement": "% of CUG foci free nuclei (Vehicle)", "value": 44.78, "unit": "%"}
    ]}
  ]
}
